The target in the assay is human PCSK9 (Homo sapiens, UniProt Q8NBP7). The assay is described as follows: PCSK9 ligand binding TR-FRET assay (interference with binding of human PCSK9 to human LDLR). The following applies: for Max % inhibition: PCSK9 FRET assay, efficacy (Amax), 100% = 1 uM unlabeled human PCSK9, 0% = DMSO; for IC50: TR-FRET, human PCSK9 Alexa Fluor 647 / human LDLR extracellular domain-Europium Kryptate, read-out: PCSK9 FRET Assay IC50. The method in brief: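 Threefold compound dilutions were pre-incubated 30 min with PCSK9, after which 4 nM Europium Kryptate-tagged human LDLR ectodomain was added for a further 2 h.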
human PCSK9, sequence (Q8NBP7 153-692): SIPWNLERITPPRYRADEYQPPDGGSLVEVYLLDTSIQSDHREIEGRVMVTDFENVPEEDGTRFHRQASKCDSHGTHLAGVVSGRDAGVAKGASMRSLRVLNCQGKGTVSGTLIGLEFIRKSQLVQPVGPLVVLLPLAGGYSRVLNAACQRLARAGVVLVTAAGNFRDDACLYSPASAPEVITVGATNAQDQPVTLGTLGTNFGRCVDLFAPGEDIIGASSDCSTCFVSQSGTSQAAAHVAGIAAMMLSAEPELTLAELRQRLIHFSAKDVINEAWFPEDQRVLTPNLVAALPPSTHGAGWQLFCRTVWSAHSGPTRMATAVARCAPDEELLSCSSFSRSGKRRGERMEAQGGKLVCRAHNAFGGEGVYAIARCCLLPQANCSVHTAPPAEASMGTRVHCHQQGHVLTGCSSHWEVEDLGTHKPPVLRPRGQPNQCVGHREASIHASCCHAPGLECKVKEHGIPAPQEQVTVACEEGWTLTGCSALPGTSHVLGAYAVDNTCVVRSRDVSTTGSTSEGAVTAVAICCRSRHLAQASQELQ
human PCSK9, sequence (Q8NBP7 31-152 partner limits assumed): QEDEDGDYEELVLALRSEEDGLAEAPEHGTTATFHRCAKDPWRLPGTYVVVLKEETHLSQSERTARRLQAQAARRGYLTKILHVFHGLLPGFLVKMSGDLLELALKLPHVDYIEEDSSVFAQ
Background: In TR-FRET formats the signal depends on donor and acceptor labels being close together.

By IC50 is commonly meant the concentration at which inhibition is half-maximal. `COC[C@@H]1NC(=O)[C@H](C)N(Cc2ccc(Cl)cc2Oc2ccc(-c3cnc(CN(C)C)n3C)cc2)C(=O)CCC(=O)N(C)[C@H]2CCCC[C@@H]2NC(=O)C[C@H](Cc2ccc(Cl)cc2)N(C)C1=O` [Compound 202, (4S,7S,10S,16aS,20aS)-11-(4-chloro-2-(4-(2-((dimethylamino)methyl)-1-methyl-1H-imidazol-5-yl)phenoxy)benzyl)-4-(4-chlorobenzyl)-7-(methoxymethyl)-5,10,16-trimethylhexadecahydrobenzo[l][1,4,7,11,14]pentaazacyclooctadecine-2,6,9,12,15(3H)-pentaone]: the Max % inhibition is recorded as 95.27% and the IC50 stood at 2.9 nM.
Consider `COC[C@@H]1NC(=O)[C@H](C)N(Cc2ccc(Cl)cc2Oc2ccc(-c3cnc(CN4CCCC4)n3C)cc2)C(=O)C[C@@H](Cc2ccccc2)C(=O)N(C)[C@H]2CCCC[C@@H]2NC(=O)C[C@H](Cc2ccc(Cl)cc2)N(C)C1=O` [Compound 203, (4S,7S,10S,14R,16aS,20aS)-14-benzyl-11-(4-chloro-2-(4-(1-methyl-2-(pyrrolidin-1-ylmethyl)-1H-imidazol-5-yl)phenoxy)benzyl)-4-(4-chlorobenzyl)-7-(methoxymethyl)-5,10,16-trimethylhexadecahydrobenzo[l][1,4,7,11,14]pentaazacyclooctadecine-2,6,9,12,15(3H)-pentaone], for which the Max % inhibition came out at 90.79% and the 50% inhibitory concentration (IC50) came to 2 nM.
Regarding `COC[C@@H]1NC(=O)[C@H](C)N(Cc2ccc(Cl)cc2Oc2ccc(-c3cnc(CN4CCOCC4)n3C)cc2)C(=O)C[C@@H](Cc2ccccc2)C(=O)N(C)[C@@H](C)CNC(=O)C[C@H](Cc2ccc(Cl)cc2)N(C)C1=O` [Compound 205, (2S,5S,8S,13S,16R)-16-benzyl-1-(4-chloro-2-(4-(1-methyl-2-(morpholinomethyl)-1H-imidazol-5-yl)phenoxy)benzyl)-8-(4-chlorobenzyl)-5-(methoxymethyl)-2,7,13,14-tetramethyl-1,4,7,11,14-pentaazacyclooctadecane-3,6,10,15,18-pentaone], the Max % inhibition was determined as 93.20% and the IC50 turned out to be 2 nM.
In the case of `COC[C@@H]1NC(=O)[C@H](C)N(Cc2ccc(Cl)cc2Oc2ccc(-c3cnc(CN4CCCC4)n3C)cc2)C(=O)C[C@@H](Cc2cccc(OC(F)(F)F)c2)C(=O)N(C)[C@@H](C)CNC(=O)C[C@H](Cc2ccc(Cl)cc2)N(C)C1=O` [Compound 206, (2S,5S,8S,13S,16R)-1-(4-chloro-2-(4-(1-methyl-2-(pyrrolidin-1-ylmethyl)-1H-imidazol-5-yl)phenoxy)benzyl)-8-(4-chlorobenzyl)-5-(methoxymethyl)-2,7,13,14-tetramethyl-16-(3-(trifluoromethoxy)benzyl)-1,4,7,11,14-pentaazacyclooctadecane-3,6,10,15,18-pentaone], the Max % inhibition came to 99.72% and the IC50 came out at 5.8 nM.
Consider `CC[C@H]1C(=O)N[C@@H](CO)C(=O)N(C)[C@@H](Cc2ccc(Cl)cc2)CC(=O)NC[C@H](C)N(C)C(=O)[C@H](Cc2ccccc2)CC(=O)N1Cc1ccc(Cl)cc1Oc1ccc(-c2cnc(CN(C)C)n2C)cc1` [Compound 207, (2S,5S,8S,13S,16R)-16-benzyl-1-(4-chloro-2-(4-(2-((dimethylamino)methyl)-1-methyl-1H-imidazol-5-yl)phenoxy)benzyl)-8-(4-chlorobenzyl)-2-ethyl-5-(hydroxymethyl)-7,13,14-trimethyl-1,4,7,11,14-pentaazacyclooctadecane-3,6,10,15,18-pentaone], for which the Max % inhibition was 102.49% and the IC50 came out at 2.2 nM.
With `COC[C@@H]1NC(=O)[C@H](C)N(Cc2c(F)cc(F)cc2Oc2ccc(-c3cnc(CN(C)C)n3C)cc2)C(=O)C[C@@H](Cc2ccccc2)C(=O)N(C)[C@H]2CCCC[C@@H]2NC(=O)C[C@H](Cc2ccc(Cl)cc2)N(C)C1=O` [Compound 208, (4S,7S,10S,14R,16aS,20aS)-14-benzyl-4-(4-chlorobenzyl)-11-(2-(4-(2-((dimethylamino)methyl)-1-methyl-1H-imidazol-5-yl)phenoxy)-4,6-difluorobenzyl)-7-(methoxymethyl)-5,10,16-trimethylhexadecahydrobenzo[l][1,4,7,11,14]pentaazacyclooctadecine-2,6,9,12,15(3H)-pentaone], the Max % inhibition was determined as 87.45% and the 50% inhibitory concentration (IC50) was determined as 2.7 nM.
Consider `CC[C@H]1C(=O)N[C@@H](COC)C(=O)N(C)[C@@H](Cc2ccc(Cl)c(F)c2)CC(=O)NC[C@H](C)N(C)C(=O)[C@H](Cc2ccccc2)CC(=O)N1Cc1ccc(Cl)cc1Oc1ccc(-c2cnc(CN(C)C)n2C)cc1` [Compound 209, (2S,5S,8S,13S,16R)-16-benzyl-1-(4-chloro-2-(4-(2-((dimethylamino)methyl)-1-methyl-1H-imidazol-5-yl)phenoxy)benzyl)-8-(4-chloro-3-fluorobenzyl)-2-ethyl-5-(methoxymethyl)-7,13,14-trimethyl-1,4,7,11,14-pentaazacyclooctadecane-3,6,10,15,18-pentaone], for which the Max % inhibition was 98.10% and the IC50 was found to be 4.9 nM.
On to `COC[C@@H]1NC(=O)[C@H](C)N(Cc2cccnc2Oc2ccc(-c3cnc(CN(C)C)n3C)cc2)C(=O)C[C@@H](Cc2ccccc2)C(=O)N(C)[C@@H](C)CNC(=O)C[C@H](Cc2ccc(Cl)cc2)N(C)C1=O` [Compound 210, (2S,5S,8S,13S,16R)-16-benzyl-8-(4-chlorobenzyl)-1-((2-(4-(2-((dimethylamino)methyl)-1-methyl-1H-imidazol-5-yl)phenoxy)pyridin-3-yl)methyl)-5-(methoxymethyl)-2,7,13,14-tetramethyl-1,4,7,11,14-pentaazacyclooctadecane-3,6,10,15,18-pentaone], for which the Max % inhibition is given as 91.38% and the concentration for half-maximal inhibition (IC50) amounted to 14.7 nM.
In the case of `COC[C@@H]1NC(=O)[C@H](CCS(C)(=O)=O)N(Cc2ccc(Cl)cc2Oc2ccc(-c3cnc(CN(C)C)n3C)cc2)C(=O)C[C@@H](Cc2ccccc2)C(=O)N(C)[C@@H](C)CNC(=O)C[C@H](Cc2ccc(Cl)cc2)N(C)C1=O` [Compound 211, (2S,5S,8S,13S,16R)-16-benzyl-1-(4-chloro-2-(4-(2-((dimethylamino)methyl)-1-methyl-1H-imidazol-5-yl)phenoxy)benzyl)-8-(4-chlorobenzyl)-5-(methoxymethyl)-7,13,14-trimethyl-2-(2-(methylsulfonyl)ethyl)-1,4,7,11,14-pentaazacyclooctadecane-3,6,10,15,18-pentaone], the Max % inhibition was found to be 102.01% and the IC50 stood at 3.9 nM.
Consider `COC[C@@H]1NC(=O)[C@H](C)N(Cc2ccc(Cl)cc2Oc2ccc(-c3cnc4c(c3)CN(C(=O)[C@@H]3CCNC3)CC4)cc2)C(=O)C[C@@H](Cc2ccccc2)C(=O)N(C)[C@@H](C)CNC(=O)C[C@H](Cc2ccc(Cl)cc2)N(C)C1=O` [Compound 212, (2S,5S,8S,13S,16R)-16-benzyl-1-(4-chloro-2-(4-(6-((R)-pyrrolidine-3-carbonyl)-5,6,7,8-tetrahydro-1,6-naphthyridin-3-yl)phenoxy)benzyl)-8-(4-chlorobenzyl)-5-(methoxymethyl)-2,7,13,14-tetramethyl-1,4,7,11,14-pentaazacyclooctadecane-3,6,10,15,18-pentaone], for which the Max % inhibition worked out at 71.82% and the concentration for half-maximal inhibition (IC50) amounted to 5.4 nM.
Consider `C[C@H]1CNC(=O)C[C@H](Cc2ccc(Cl)cc2)N(C)C(=O)[C@H](CC(=O)O)NC(=O)[C@H](C)N(Cc2ccc(Cl)cc2Oc2ccc(-c3cnc(CN(C)C)n3C)cc2)C(=O)C[C@@H](Cc2ccccc2)C(=O)N1C` [Compound 213, 2-((2S,5S,8S,13S,16R)-16-benzyl-1-(4-chloro-2-(4-(2-((dimethylamino)methyl)-1-methyl-1H-imidazol-5-yl)phenoxy)benzyl)-8-(4-chlorobenzyl)-2,7,13,14-tetramethyl-3,6,10,15,18-pentaoxo-1,4,7,11,14-pentaazacyclooctadecan-5-yl)acetic acid], for which the Max % inhibition was found to be 91.51% and the IC50 came out at 3.5 nM.
In the case of `COC[C@@H]1NC(=O)[C@H](C)N(Cc2ncccc2Oc2ccc(-c3cnc(CN(C)C)n3C)cc2)C(=O)C[C@@H](Cc2ccccc2)C(=O)N(C)[C@@H](C)CNC(=O)C[C@H](Cc2ccc(Cl)cc2)N(C)C1=O` [Compound 214, (2S,5S,8S,13S,16R)-16-benzyl-8-(4-chlorobenzyl)-1-((3-(4-(2-((dimethylamino)methyl)-1-methyl-1H-imidazol-5-yl)phenoxy)pyridin-2-yl)methyl)-5-(methoxymethyl)-2,7,13,14-tetramethyl-1,4,7,11,14-pentaazacyclooctadecane-3,6,10,15,18-pentaone], the Max % inhibition is 97.43% and the IC50 came out at 33.2 nM.
On the same counts, the results for `COC[C@@H]1NC(=O)[C@H](C)N(Cc2ccc(Cl)cc2Oc2ccc(-c3cnc(CN(C)C)n3C)cc2)C(=O)C[C@@H](C2CC2)C(=O)N(C)[C@@H](C)CNC(=O)C[C@H](Cc2ccc(Cl)cc2)N(C)C1=O` [Compound 215, (2S,5S,8S,13S)-1-(4-chloro-2-(4-(2-((dimethylamino)methyl)-1-methyl-1H-imidazol-5-yl)phenoxy)benzyl)-8-(4-chlorobenzyl)-16-cyclopropyl-5-(methoxymethyl)-2,7,13,14-tetramethyl-1,4,7,11,14-pentaazacyclooctadecane-3,6,10,15,18-pentaone] are 95.08% and 11 nM.
On the same counts, the results for `COC[C@@H]1NC(=O)[C@H](C)N(Cc2ccc(Cl)cc2Oc2ccc(-c3cnc(CN4CCCC4)n3C)cc2)C(=O)C[C@@H](Cc2ccccc2)C(=O)N(C)[C@@H](CCCCNC(C)=O)CNC(=O)C[C@H](Cc2ccc(Cl)cc2)N(C)C1=O.O=C(O)C(F)(F)F` [Compound 217, N-(4-((2S,5S,8S,13S,16R)-16-benzyl-1-(4-chloro-2-(4-(1-methyl-2-(pyrrolidin-1-ylmethyl)-1H-imidazol-5-yl)phenoxy)benzyl)-8-(4-chlorobenzyl)-5-(methoxymethyl)-2,7,14-trimethyl-3,6,10,15,18-pentaoxo-1,4,7,11,14-pentaazacyclooctadecan-13-yl)butyl)acetamide trifluoroacetate] are 95.74% and 0.7 nM.
